The text below walks through data of PubChem BioAssay (NCI).

Among the test systems are OVCAR-5 ovarian; 786-0 renal; SK-MEL-28 melanoma; HCT-116 colon; NCI-H460 lung; OVCAR-4 ovarian; COLO 205 colon; HCC-2998 colon; A549 NSCLC; IGROV1 ovarian.
Common to all, as to test: growth of human tumour cells (NCI), 48 h

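Test compounds were applied to cells in 96-well plates for 48 hours at 5 doses. Abbreviation: GI50, concentration required for 50% inhibition of growth. The concentration for full growth arrest is given as TGI.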 Where only a bound is given, the exact number is not on record here.

For `Cc1ccc(NC(=O)CC(=O)N2N=C(N(CCC#N)c3cccc(C)c3)CC2c2ccccc2)cc1` (stereo not given), the TGI in the assay with OVCAR-5 ovarian, in the assay with 786-0 renal, with SK-MEL-28 melanoma, in the assay with HCT-116 colon, with NCI-H460 lung and with OVCAR-4 ovarian was over 100 µM in each case. Moreover, the TGI in the assay on COLO 205 colon, in the assay on HCC-2998 colon, in the assay with A549 NSCLC and in the assay on IGROV1 ovarian was over 100 µM in each case.
With `CO[C@@]12[C@@H]3NC3CN1C1=C(C(=O)C(N)=C(C)C1=O)[C@@H]2COC(N)=O` (stereo not given in full), the GI50 with OVCAR-5 ovarian is 1.02 µM; with SK-MEL-28 melanoma, 1.39 µM; in the assay with HCT-116 colon, 0.53 µM; in the assay on OVCAR-4 ovarian, 2.22 µM; with COLO 205 colon, 0.55 µM; in the assay on HCC-2998 colon, 0.46 µM. In addition, the GI50 in the assay on IGROV1 ovarian was 1.3 µM. For the same molecule, the TGI was found to be 6.99 µM in the assay with OVCAR-5 ovarian; 2.77 µM in the assay on 786-0 renal; 5.47 µM in the assay with SK-MEL-28 melanoma; 3.26 µM in the assay with HCT-116 colon; 1.44 µM in the assay with NCI-H460 lung; 33.9 µM in the assay on OVCAR-4 ovarian. Further, the TGI in the assay on COLO 205 colon stood at 2.3 µM; in the assay with HCC-2998 colon, 2.02 µM; with A549 NSCLC, 3.62 µM; in the assay with IGROV1 ovarian it was 4 µM.
As to `Nc1ccc(S(=O)(=O)Nc2cnc3c(Cl)cccc3n2)cc1`, the GI50 in the assay on OVCAR-5 ovarian was over 80.7 µM; in the assay on SK-MEL-28 melanoma, over 69.4 µM; in the assay with HCT-116 colon it was 14.7 µM; with NCI-H460 lung, over 77.9 µM; in the assay with OVCAR-4 ovarian, over 78.1 µM; with COLO 205 colon, over 74.3 µM. For the same molecule, the GI50 with HCC-2998 colon was 149 µM; in the assay on IGROV1 ovarian, 1.16 µM. The TGI was over 750 µM with OVCAR-5 ovarian; over 750 µM with 786-0 renal; 723 µM in the assay with SK-MEL-28 melanoma; 609 µM in the assay with HCT-116 colon; over 750 µM in the assay on NCI-H460 lung; over 672 µM in the assay with OVCAR-4 ovarian. In addition, the TGI in the assay on COLO 205 colon is 193 µM; in the assay on HCC-2998 colon, over 663 µM; with A549 NSCLC it was over 750 µM; in the assay with IGROV1 ovarian, over 275 µM.
As to `CC(=O)OC1CC2C(=O)C(=O)C1(C)C2(C)C` (stereo not given), the TGI in the assay on OVCAR-5 ovarian, with 786-0 renal, in the assay with SK-MEL-28 melanoma, in the assay with HCT-116 colon, in the assay on NCI-H460 lung and in the assay on OVCAR-4 ovarian was over 100 µM each time. Further, the TGI with COLO 205 colon, with HCC-2998 colon, in the assay with A549 NSCLC and with IGROV1 ovarian was over 100 µM in each case.
Turning to `O=c1[nH]c2ccccc2n1-c1n[nH]c2ccccc12`, the GI50 in the assay with OVCAR-5 ovarian is 33.6 µM; with 786-0 renal, 46.6 µM; in the assay with SK-MEL-28 melanoma it was 38.8 µM; in the assay with HCT-116 colon it was 24.6 µM; in the assay on NCI-H460 lung it was 19.4 µM; in the assay on OVCAR-4 ovarian, 41.3 µM. The GI50 in the assay with COLO 205 colon was 28.7 µM; in the assay on HCC-2998 colon, 31.9 µM; in the assay on A549 NSCLC, 30.8 µM; in the assay with IGROV1 ovarian, 8.29 µM. The TGI is over 100 µM with OVCAR-5 ovarian; over 100 µM with 786-0 renal; over 100 µM in the assay with SK-MEL-28 melanoma; 67.5 µM with HCT-116 colon; 93.5 µM in the assay with NCI-H460 lung; over 100 µM in the assay on OVCAR-4 ovarian. Also, the TGI in the assay with COLO 205 colon, in the assay on HCC-2998 colon, in the assay with A549 NSCLC and in the assay with IGROV1 ovarian was over 100 µM each time.
With `Cc1cc(Cl)cc2c1NC(=O)C2=O` (tested in a mixture with another compound), the TGI in the assay on OVCAR-5 ovarian, in the assay with 786-0 renal, in the assay on SK-MEL-28 melanoma, in the assay with HCT-116 colon, with NCI-H460 lung and in the assay on OVCAR-4 ovarian was over 100 µM each time. Moreover, the TGI in the assay with COLO 205 colon, in the assay on HCC-2998 colon, with A549 NSCLC and with IGROV1 ovarian was over 100 µM each time.
In the case of `C[C@@H]1C[C@]2(C[C@@H](C)C3[C@@H](CC4(C)[C@@H]5CCC6C(C)(C)OC(=O)C=C[C@]67C[C@@]5(CC[C@]34C)OO7)O2)OC1=O` (stereo not given in full), the TGI with OVCAR-5 ovarian was over 100 µM; in the assay with 786-0 renal, over 100 µM; in the assay on SK-MEL-28 melanoma, over 100 µM; with HCT-116 colon it was over 100 µM; with NCI-H460 lung, over 100 µM; with OVCAR-4 ovarian it was 64.4 µM. Besides, the TGI with COLO 205 colon, in the assay with HCC-2998 colon, in the assay with A549 NSCLC and in the assay with IGROV1 ovarian was over 100 µM each time.
As for `O=C(NCCCCCCCNC(=O)OCc1ccc2c(Cl)cc(Cl)c(O)c2n1)OCc1ccc2c(Cl)cc(Cl)c(O)c2n1`, the GI50 in the assay with OVCAR-5 ovarian is 1.69 µM; in the assay on 786-0 renal it was 1.4 µM; in the assay on SK-MEL-28 melanoma, 1.17 µM; with HCT-116 colon, 0.241 µM; in the assay with NCI-H460 lung it was 1.4 µM; with OVCAR-4 ovarian it was 0.465 µM. Besides, the GI50 with COLO 205 colon is 0.564 µM; in the assay on HCC-2998 colon it was 1.65 µM; in the assay with A549 NSCLC, 1.85 µM; in the assay with IGROV1 ovarian it was 0.561 µM. The TGI was found to be 3.32 µM with OVCAR-5 ovarian; 2.89 µM in the assay with 786-0 renal; 2.42 µM in the assay on SK-MEL-28 melanoma; 0.63 µM in the assay on HCT-116 colon; 3.51 µM in the assay with NCI-H460 lung; 1.62 µM in the assay with OVCAR-4 ovarian. Moreover, the TGI in the assay with COLO 205 colon came out at 2 µM; with HCC-2998 colon it was 3.14 µM; in the assay with A549 NSCLC, 3.76 µM; in the assay with IGROV1 ovarian, 1.41 µM.
In the case of `Nc1ccc2c(c1)c(N)nn2C(=O)Nc1ccc(Cc2ccccc2)cc1`, the GI50 in the assay on OVCAR-5 ovarian is 22.6 µM; with 786-0 renal, 12.4 µM; in the assay on SK-MEL-28 melanoma, 13.7 µM; in the assay with HCT-116 colon, 6.79 µM; with NCI-H460 lung, 4.64 µM; with OVCAR-4 ovarian it was 8.29 µM. For the same molecule, the GI50 in the assay with COLO 205 colon is 13.1 µM; in the assay with HCC-2998 colon, 4.17 µM; in the assay with A549 NSCLC it was 6.58 µM; in the assay on IGROV1 ovarian it was 16.4 µM. For the same molecule, the TGI stood at 60.5 µM in the assay with OVCAR-5 ovarian; 25.9 µM in the assay with 786-0 renal; 27.8 µM in the assay with SK-MEL-28 melanoma; 20.8 µM in the assay on HCT-116 colon; 23.8 µM in the assay on NCI-H460 lung; 24.1 µM with OVCAR-4 ovarian. Further, the TGI is 26.5 µM in the assay on COLO 205 colon, 14.8 µM with HCC-2998 colon, 57.1 µM in the assay on A549 NSCLC and 54.1 µM with IGROV1 ovarian.
